Laboratory results as given in ChEMBL document CHEMBL1157995, “New acetylenic enol ethers of glycerol from the sponge Petrosia sp” (1999).
In brackets after ≈: the same amount, converted by molar mass.

Test system: K562
Assay: Cytotoxicity against human K-562 cells after 5 days by MTT assay
Format: functional
Details: K562, 120 h, read-out: LC50 (the source's name)

| SMILES | CC50 [µg/mL] |
| --- | --- |
| CCCCCC/C=C\C#C/C=C\OC[C@@H](O)CO [PETRORASPAILYNE A1] | 9.2 (≈ 36.5 µM) |
| CC(C)CCCC/C=C\C#C/C=C\OC[C@@H](O)CO [PETRORASPAILYNE A2] | 57 (≈ 214 µM) |
| CCC(C)CCCCC/C=C\C#C/C=C\OC[C@@H](O)CO (stereo partly specified) [PETRORASPAILYNE A3] | 29 (≈ 98.5 µM) |
| CCCCCCCCC#C/C=C\OC[C@@H](O)CO [PETRORASPAILYNE B1] | > 100 |
| CCC(C)CCCCCC#C/C=C\OC[C@@H](O)CO (stereo partly specified) [PETRORASPAILYNE B2] | > 100 |
| CC(C)CCCCCCC#C/C=C\OC[C@@H](O)CO [PETRORASPAILYNE B3] | > 100 |
